Test results: ChEMBL document CHEMBL3880394, “Benzazole derivatives and their use as jnk modulators” (2003)

What was measured:
[1] = Neuroprotective activity against NGF, arabinosine deficiency and anti NGF antibody-mediated cell death in sympathetic neurons from new born rat superior cervical ganglia assessed as survival rate after 24 hrs by MTT assay relative to control; assay type: functional, Sympathetic neuron
[2] = Antiinflammatory activity in human Jurkat cells assessed as inhibition of PMA/ionomycine-induced IL2 production preincubated for 30 mins followed by PMA/ionomycine induction measured after 24 hrs by ELISA relative to control; assay type: functional

Compound | Survival [1] | inhibition (INH) [2]
N#CC(c1ccnc(Cl)n1)c1nc2ccccc2s1 (stereo not given) | <=80% | >30%
N#CC(c1ccnc(OCc2ccccn2)n1)c1nc2ccccc2s1 (stereo not given) |  | >30%
N#CC(c1ccnc(OCc2ccc(Cl)c(Cl)c2)n1)c1nc2ccccc2s1 (stereo not given) | <=80% | 
N#CC(c1ccnc(NCCCn2ccnc2)n1)c1nc2ccccc2s1 (stereo not given) | <=80% | 
